Laboratory results: US9688702B2, “Alpha-amino boronic acid derivatives, selective immunoproteasome inhibitors” (Ares Trading S.A, priority 2011, dated 2017)

Experiments:
[1] = molecular target: LMP7 (purified human immuno proteasome) (Homo sapiens, UniProt P28062); assay: Determination of LMP7 activity (fluorescence intensity assay, Suc-LLVY-AMC); assay type: biochemical; conditions: for IC50: purified human immuno proteasome 0.5 nM, 40 μM Suc-LLVY-AMC, 37° C.
Method: Measurement of LMP7 inhibition is performed in 384 well format based on fluorescence intensity assay.
(§1) Purified human immuno proteasome (0.5 nM) and serial diluted compounds in DMSO (range of concentrations from 10 μM to 38 pM) or controls (0.5% DMSO) are incubated for 30 minutes at 37° C. in assay buffer containing 50 mM Tris pH 7.4 and 0.03% SDS. The reaction is initiated by the addition of the fluorogenic peptide substrate, Suc-LLVY-AMC (Bachem I-1395), at a concentration of 40 μM. After 90 minutes of incubation at 37° C., fluorescence intensity is measured at λex=350 nm and λem=450 nm with a fluorescence reader (BMG Pherastar reader or equivalent).
as §1, with “proteasome (0.25” for “proteasome (0.5”

[2] = molecular target: Beta5 (purified human constitutive proteasome) (Homo sapiens, UniProt P28074); assay: Determination of Beta5 activity (fluorescence intensity assay, Suc-LLVY-AMC); assay type: biochemical; conditions: purified human constitutive proteasome 1.0 nM, 40 μM Suc-LLVY-AMC, 37° C.
Method: Measurement of Beta5 inhibition is performed in 384 well format based on fluorescence intensity assay.
as §1, with “human constitutive” for “human immuno”, “proteasome (1.0” for “proteasome (0.5”, “(Bachem 1-1395),” for “(Bachem I-1395),”

Row | SMILES | Selectivity LMP7 vs Beta5 [1] | IC50 [1] [nM] | IC50 [2] [nM]
1 | COc1ccc(C(=O)CCC(=O)N[C@@H](Cc2cccc(C(F)(F)F)c2)B(O)O)cc1 [Example 26, {(1R)-1-{[4-(4-methoxyphenyl)-4-oxobutanoyl]amino}-2-[3-(trifluoromethyl)phenyl]ethyl}boronic acid] | +++ (+++: Selectivity > 30) | 50 to 500 | > 5000
2 | O=C(CCc1noc(-c2ccccc2)n1)N[C@@H](Cc1ccsc1)B(O)O [Example 37, [(1R)-1-{[3-(5-phenyl-1,2,4-oxadiazol-3-yl)propanoyl]amino}-2-(3-thienyl)ethyl]boronic acid] | ++ (++: 10 < Selectivity < 30) | 50 to 500 | 500 to 5000
3 | O=C(CCc1cn(-c2ccccc2)nn1)N[C@@H](Cc1ccsc1)B(O)O [Example 41, [(1R)-1-{[3-(1-phenyl-1H-1,2,3-triazol-4-yl)propanoyl]amino}-2-(3-thienyl)ethyl]boronic acid] | +++ (+++: Selectivity > 30) | < 50 | 500 to 5000
4 | COc1ccc(C(=O)CCC(=O)N[C@@H](Cc2ccc(OC(F)(F)F)cc2)B(O)O)cc1 [Example 43, (R)-(1-(4-(4-methoxyphenyl)-4-oxobutanamido)-2-(4-(trifluoromethoxy)phenyl)ethyl)boronic acid] | ++ (++: 10 < Selectivity < 30) | 50 to 500 | 500 to 5000
5 | COc1ccc(C(=O)CC(Cc2ccccc2)C(=O)N[C@@H](Cc2ccc(OC(F)(F)F)cc2)B(O)O)cc1 (stereo partly drawn) [Example 44, ((1R)-1-(2-benzyl-4-(4-methoxyphenyl)-4-oxobutanamido)-2-(4-(trifluoromethoxy)phenyl)ethyl)boronic acid] | ++ (++: 10 < Selectivity < 30) | < 50 | 50 to 500
6 | COc1ccc(C(=O)C[C@@H](Cc2ccccc2)C(=O)N[C@@H](Cc2ccc(OC)c(C(F)(F)F)c2)B(O)O)cc1 [Example 45, ((R)-1-((R)-2-benzyl-4-(4-methoxyphenyl)-4-oxobutanamido)-2-(4-methoxy-3-(trifluoromethyl)phenyl)ethyl)boronic acid] | +++ (+++: Selectivity > 30) | < 50 | 500 to 5000
7 | COc1ccc(C(=O)CCC(=O)N[C@@H](Cc2ccc(OC)c(C(F)(F)F)c2)B(O)O)cc1 [Example 46, (R)-(2-(4-methoxy-3-(trifluoromethyl)phenyl)-1-(4-(4-methoxyphenyl)-4-oxobutanamido)ethyl)boronic acid] |  | 50 to 500 | > 5000
8 | COc1ccc(C(=O)CCC(=O)N[C@@H](Cc2cc(F)cc(OC)c2)B(O)O)cc1 [Example 47, (R)-(2-(3-fluoro-5-methoxyphenyl)-1-(4-(4-methoxyphenyl)-4-oxobutanamido)ethyl)boronic acid] | +++ (+++: Selectivity > 30) | 50 to 500 | > 5000
9 | COc1ccc(C(=O)CCC(=O)N[C@@H](Cc2cccc(OC(F)(F)F)c2)B(O)O)cc1 [Example 48, (R)-(1-(4-(4-methoxyphenyl)-4-oxobutanamido)-2-(3-(trifluoromethoxy)phenyl)ethyl)boronic acid] | ++ (++: 10 < Selectivity < 30) | 50 to 500 | 500 to 5000
10 | COc1ccc(C(=O)CC(Cc2ccccc2)C(=O)N[C@@H](Cc2cc(F)cc(OC)c2)B(O)O)cc1 (stereo partly drawn) [Example 49, ((1R)-1-(2-benzyl-4-(4-methoxyphenyl)-4-oxobutanamido)-2-(3-fluoro-5-methoxyphenyl)ethyl)boronic acid] | ++ (++: 10 < Selectivity < 30) | < 50 | 50 to 500
11 | COc1ccc(C(=O)CCC(=O)N[C@@H](Cc2ccc(F)c(C(F)(F)F)c2)B(O)O)cc1 [Example 50, (R)-(2-(4-fluoro-3-(trifluoromethyl)phenyl)-1-(4-(4-methoxyphenyl)-4-oxobutanamido)ethyl)boronic acid] | ++ (++: 10 < Selectivity < 30) | 50 to 500 | > 5000

The remaining lines, values ahead:

Row | Selectivity LMP7 vs Beta5 [1] | IC50 [1] [nM] | IC50 [2] [nM] | SMILES
12 | ++ (++: 10 < Selectivity < 30) | 50 to 500 | 500 to 5000 | CCc1cccc(C[C@H](NC(=O)CCn2ncc3ccccc32)B(O)O)c1 [Example 28, ((1R)-2-(3-ethylphenyl)-1-{[3-(1H-indazol-1-yl)propanoyl]amino}ethyl)boronic acid]
13 | ++ (++: 10 < Selectivity < 30) | < 50 | 50 to 500 | CCc1cccc(C[C@H](NC(=O)CCn2cnc3ccccc32)B(O)O)c1 [Example 29, [(1R)-1-{[3-(1H-benzimidazol-1-yl)propanoyl]amino}-2-(3-ethylphenyl)ethyl]boronic acid]
14 | ++ (++: 10 < Selectivity < 30) | < 50 | 50 to 500 | CCc1cccc(C[C@H](NC(=O)CCn2c(=O)sc3ccccc32)B(O)O)c1 [Example 30, ((1R)-2-(3-ethylphenyl)-1-{[3-(2-oxo-1,3-benzothiazol-3(2H)-yl)propanoyl]amino}ethyl)boronic acid]
15 | ++ (++: 10 < Selectivity < 30) | < 50 | 50 to 500 | CCc1cccc(C[C@H](NC(=O)CCn2nnc3ccccc32)B(O)O)c1 [Example 31, [(1R)-1-{[3-(1H-1,2,3-benzotriazol-1-yl)propanoyl]amino}-2-(3-ethylphenyl)ethyl]boronic acid]
16 | + (+: Selectivity < 10) | 50 to 500 | 50 to 500 | O=C(CCn1ncc2ccccc21)N[C@@H](Cc1ccsc1)B(O)O [Example 32, [(1R)-1-{[3-(1H-indazol-1-yl)propanoyl]amino}-2-(3-thienyl)ethyl]boronic acid]
17 | + (+: Selectivity < 10) | 50 to 500 | 50 to 500 | O=C(CCn1cnc2ccccc21)N[C@@H](Cc1ccsc1)B(O)O [Example 33, [(1R)-1-{[3-(1H-benzimidazol-1-yl)propanoyl]amino}-2-(3-thienyl)ethyl]boronic acid]
18 | + (+: Selectivity < 10) | < 50 | 50 to 500 | O=C(CCn1c(=O)sc2ccccc21)N[C@@H](Cc1ccsc1)B(O)O [Example 34, [(1R)-1-{[3-(2-oxo-1,3-benzothiazol-3(2H)-yl)propanoyl]amino}-2-(3-thienyl)ethyl]boronic acid]
19 | + (+: Selectivity < 10) | < 50 | 50 to 500 | O=C(CCn1nnc2ccccc21)N[C@@H](Cc1ccsc1)B(O)O [Example 35, [(1R)-1-{[3-(1H-1,2,3-benzotriazol-1-yl)propanoyl]amino}-2-(3-thienyl)ethyl]boronic acid]
20 | +++ (+++: Selectivity > 30) | < 50 | 500 to 5000 | CCc1cccc(C[C@H](NC(=O)CCc2noc(-c3ccccc3)n2)B(O)O)c1 [Example 36, ((1R)-2-(3-ethylphenyl)-1-{[3-(5-phenyl-1,2,4-oxadiazol-3-yl)propanoyl]amino}ethyl)boronic acid]
21 | ++ (++: 10 < Selectivity < 30) | < 50 | 50 to 500 | O=C(CCn1cnc2ccccc21)N[C@@H](Cc1cccc(C(F)(F)F)c1)B(O)O [Example 38, {(1R)-1-{[3-(1H-benzimidazol-1-yl)propanoyl]amino}-2-[3-(trifluoromethyl)phenyl]ethyl}boronic acid]
22 | +++ (+++: Selectivity > 30) | 50 to 500 | 500 to 5000 | O=C(CCc1noc(-c2ccccc2)n1)N[C@@H](Cc1cccc(C(F)(F)F)c1)B(O)O [Example 39, {(1R)-1-{[3-(5-phenyl-1,2,4-oxadiazol-3-yl)propanoyl]amino}-2-[3-(trifluoromethyl)phenyl]ethyl}boronic acid]
23 | ++ (++: 10 < Selectivity < 30) | < 50 | 50 to 500 | O=C(CCn1cc(-c2ccccc2)nn1)N[C@@H](Cc1ccsc1)B(O)O [Example 40, [(1R)-1-{[3-(4-phenyl-1H-1,2,3-triazol-1-yl)propanoyl]amino}-2-(3-thienyl)ethyl]boronic acid]
24 | ++ (++: 10 < Selectivity < 30) | 50 to 500 | 500 to 5000 | CCc1cccc(C[C@H](NC(=O)Cn2ccc3ccccc3c2=O)B(O)O)c1 [Example 42, ((1R)-2-(3-ethylphenyl)-1-{[(1-oxoisoquinolin-2(1H)-yl)acetyl]amino}ethyl)boronic acid]
